Here are results for 39 molecules from patent publication US20250320184A1 (SIRONAX LTD., priority 2022, published 2025).

For the assay, the target named is T1, SARM1 (50-724) (Homo sapiens, UniProt Q6SZW1).
T1 sequence (Q6SZW1 50-724): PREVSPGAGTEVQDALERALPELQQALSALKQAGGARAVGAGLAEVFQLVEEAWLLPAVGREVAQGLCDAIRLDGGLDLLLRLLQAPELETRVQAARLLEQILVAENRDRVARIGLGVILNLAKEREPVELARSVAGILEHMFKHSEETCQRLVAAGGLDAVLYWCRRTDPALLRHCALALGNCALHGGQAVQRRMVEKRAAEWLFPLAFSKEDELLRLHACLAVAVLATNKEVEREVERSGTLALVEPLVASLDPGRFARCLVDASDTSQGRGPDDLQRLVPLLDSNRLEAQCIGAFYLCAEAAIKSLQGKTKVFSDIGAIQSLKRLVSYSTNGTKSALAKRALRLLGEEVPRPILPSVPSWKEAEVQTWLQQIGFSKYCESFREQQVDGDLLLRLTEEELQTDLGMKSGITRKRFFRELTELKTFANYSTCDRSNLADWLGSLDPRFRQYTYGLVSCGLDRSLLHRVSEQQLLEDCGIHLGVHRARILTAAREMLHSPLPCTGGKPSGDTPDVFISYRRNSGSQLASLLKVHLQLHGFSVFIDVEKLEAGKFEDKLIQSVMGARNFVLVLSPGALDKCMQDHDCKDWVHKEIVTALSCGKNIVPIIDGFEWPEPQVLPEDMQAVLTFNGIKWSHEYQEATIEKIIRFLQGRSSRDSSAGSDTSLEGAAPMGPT
Nature of the assay: biochemical.

Method: An enzymatic assay was performed in a 384-well plate using Dulbecco's phosphate-buffered saline (PBS) as the reaction buffer. […] The reaction was initiated by adding a mixture of 200 μM nicotinamide mononucleotide (NMN) as activator and 100 μM NAD^+ as substrate. After 1 h of incubation at room temperature, the reaction was terminated with 10 times volume of 70% acetonitrile, then centrifuged at 3800 rpm for 10 min.

A word on the IC50: it is the concentration at which inhibition is half-maximal. Consider `CC(Nc1ccc2cc[nH]c(=O)c2c1)c1nc(Cl)c(Cl)s1` (racemic) [Compound 187, 7-((1-(4,5-dichlorothiazol-2-yl)ethyl)amino)isoquinolin-1(2H)-one], for which the half-maximal inhibitory concentration (IC50) is < 100 nM.

As for `Cc1c2ccc(NC(C)c3nc(Cl)c(Cl)s3)cc2nn1[C@@H]1CC[C@H](O)C1` (stereo in doubt) [Compound 336, 3-(6-((1-(4,5-dichlorothiazol-2-yl)ethyl)amino)-3-methyl-2H-indazol-2-yl)cyclopentan-1-ol], the IC50 was < 100 nM.

As to `CC(Nc1ccc2cc[nH]c(=O)c2c1)c1cc(F)ccc1Cl` (racemic) [Example 135, 7-((1-(2-chloro-5-fluorophenyl)ethyl)amino)isoquinolin-1(2H)-one], the IC50 was < 100 nM.

For `CC(Nc1ccc2c(c1)c(C(=O)N(C)C)nn2C)c1c(Cl)ccc(F)c1Cl` (racemic) [Compound 245, 5-((1-(2,6-dichloro-3-fluorophenyl)ethyl)amino)-N,N1-trimethyl-1H-indazole-3-carboxamide], the IC50 lay within 100 to 500 nM.

`O=C1NCCc2ccc(NS(=O)(=O)N3CCCC4CCCC43)cc21` (mixture of isomers) [Example 171] returned a half-inhibitory concentration (IC50) of 100 to 500 nM.

With `O=S(=O)(Nc1ccc2ccccc2c1)c1cccc(Cl)c1Cl` [Compound 44, 2,3-dichloro-N-(naphthalen-2-yl)benzenesulfonamide], the half-inhibitory concentration (IC50) is 100 to 500 nM.

With `Cc1c2c(F)cc(NC(C)c3nc(Cl)c(Cl)s3)cc2nn1CC(N)=O` (racemic) [Compound 389, 2-(6-((1-(4,5-dichlorothiazol-2-yl)ethyl)amino)-4-fluoro-3-methyl-2H-indazol-2-yl)acetamide], the IC50 is < 100 nM.

On to `CC1CCC(C)N(S(=O)(=O)Nc2ccc3c(c2)C(=O)NCC3)C1` (mixture of isomers) [Example 172, 2,5-dimethyl-N-(1-oxo-1,2,3,4-tetrahydroisoquinolin-7-yl)piperidine-1-sulfonamide], for which the half-inhibitory concentration (IC50) was > 1000 nM.

On to `CC1(C)C(=O)N(CC(=O)O)c2cc(NS(=O)(=O)c3cccc(Cl)c3Cl)ccc21` [Compound 241, 2-[6-[(2,3-dichlorophenyl)sulfonylamino]-3,3-dimethyl-2-oxo-indolin-1-yl]acetic Acid], for which the IC50 is < 100 nM.

Consider `CC(Nc1ccc2c(c1)C(=O)NCC2)c1ccc(Cl)c(Cl)c1` (racemic) [Example 104, 7-((1-(3,4-dichlorophenyl)ethyl)amino)-3,4-dihydroisoquinolin-1(2H)-one], for which the concentration for half-maximal inhibition (IC50) was 500 to 1000 nM.

Regarding `Cc1c2ccc(NS(=O)(=O)c3cccc(Cl)c3Cl)cc2nn1C` [Compound 72, 2,3-dichloro-N-(2,3-dimethyl-2H-indazol-6-yl)benzenesulfonamide], the IC50 was < 100 nM.

Consider `CCC(Nc1ccc2c(c1)C(=O)NCN2)c1cccc(Cl)c1Cl` (racemic) [Example 147, 6-((1-(2,3-dichlorophenyl)propyl)amino)-2,3-dihydroquinazolin-4(1H)-one], for which the IC50 lay in the range of 100 to 500 nM.

Regarding `Cc1c2ccc(NC(C)c3snc(Cl)c3Cl)cc2nn1CC(N)=O` (single isomer, unassigned) [Compound 341A], the IC50 is < 100 nM.

Consider `Cc1c(Cl)c(C(C)Nc2ccc3cc[nH]c(=O)c3c2)nn1C` (single isomer, unassigned) [Compound 226B], for which the 50% inhibitory concentration (IC50) was < 100 nM.

Consider `CC(Nc1nc2ccccc2s1)c1nc(Cl)c(Cl)s1` (racemic) [Compound 344, N-(1-(4,5-dichlorothiazol-2-yl)ethyl)benzo[d]thiazol-2-amine], for which the half-maximal inhibitory concentration (IC50) is < 100 nM.

As for `CC1(C)CC(O)c2cc(NS(=O)(=O)c3cccc(Cl)c3Cl)ccc21` (racemic) [Compound 274, 2,3-dichloro-N-(3-hydroxy-1,1-dimethyl-2,3-dihydro-1H-inden-5-yl)benzenesulfonamide], the IC50 was < 100 nM.

Turning to `CC(Nc1ccc2cc[nH]c(=O)c2c1)c1cccc(F)c1` (racemic) [Example 113, 7-((1-(3-fluorophenyl)ethyl)amino)isoquinolin-1(2H)-one], the IC50 lay within 500 to 1000 nM.

For `CC(Nc1ccc2cc[nH]c(=O)c2c1)c1cccc(Cl)c1Cl` (racemic) [Example 103, 7-((1-(2,3-dichlorophenyl)ethyl)amino)isoquinolin-1(2H)-one], the IC50 is < 100 nM.

As for `Cc1c2ccc(NC(C)c3sc(Cl)nc3Cl)cc2nn1CC(N)=O` (single isomer, unassigned) [Compound 347], the half-inhibitory concentration (IC50) is < 100 nM.

Take `Cn1ccc(C(=O)N2CC(C)(C)c3ccc(NS(=O)(=O)c4cccc(Cl)c4Cl)cc32)n1` [Compound 295, 2,3-dichloro-N-(3,3-dimethyl-1-(1-methyl-1H-pyrazole-3-carbonyl)indolin-6-yl)benzenesulfonamide]: the IC50 was < 100 nM.

As for `CC(Nc1cc(F)c2nc[nH]c(=O)c2c1)c1cncc(Cl)c1Cl` (racemic) [Compound 354, 6-((1-(4,5-dichloropyridin-3-yl)ethyl)amino)-8-fluoroquinazolin-4(3H)-one], the concentration for half-maximal inhibition (IC50) is < 100 nM.

Regarding `CC1(C)C(=O)N(CC(=O)N2CCOCC2)c2cc(NS(=O)(=O)c3cccc(Cl)c3Cl)ccc21` [Example 291, 2,3-dichloro-N-(3,3-dimethyl-1-(2-morpholino-2-oxoethyl)-2-oxoindolin-6-yl)benzenesulfonamide], the half-maximal inhibitory concentration (IC50) was < 100 nM.

In the case of `O=S(=O)(Nc1ccc2c(F)n[nH]c2c1)c1cccc(Cl)c1Cl` [Compound 75, 2,3-dichloro-N-(3-fluoro-1H-indazol-6-yl)benzenesulfonamide], the half-inhibitory concentration (IC50) was < 100 nM.

Molecule `O=S(=O)(Nc1ccc2csnc2c1)c1cccc(Cl)c1Cl` [Compound 59, N-(benzo[c]isothiazol-6-yl)-2,3-dichlorobenzenesulfonamide] gave an IC50 of 100 to 500 nM.

For `CCC(Nc1ccc2cc[nH]c(=O)c2c1)c1cccc(Cl)c1Cl` (racemic) [Example 143, 7-((1-(2,3-dichlorophenyl)propyl)amino)isoquinolin-1(2H)-one], the IC50 is < 100 nM.

Regarding `Cc1ccc(F)cc1S(=O)(=O)Nc1ccc2c(c1)C(=O)NCC2` [Compound 10, 5-fluoro-2-methyl-N-(1-oxo-1,2,3,4-tetrahydroisoquinolin-7-yl)benzenesulfonamide], the half-inhibitory concentration (IC50) is > 1000 nM.

As to `CC(Nc1ccc2cc[nH]c(=O)c2c1)c1csc(Cl)c1Cl` (racemic) [Compound 353, 7-((1-(4,5-dichlorothiophen-3-yl)ethyl)amino)isoquinolin-1(2H)-one], the 50% inhibitory concentration (IC50) was < 100 nM.

`CC(Nc1cc(F)c2ncn(-c3cn[nH]c3)c(=O)c2c1)c1nc(Cl)c(Cl)s1` (single isomer, unassigned) [Example 374]: the 50% inhibitory concentration (IC50) is < 100 nM.

For `CC(=O)N1CC(C)(C)c2ccc(NS(=O)(=O)c3cccc(Cl)c3Cl)cc21` [Compound 220, N-(1-acetyl-3,3-dimethyl-indolin-6-yl)-2,3-dichloro-benzenesulfonamide], the IC50 is < 100 nM.

`COc1cc2cc(NS(=O)(=O)c3cccc(Cl)c3Cl)ccc2cn1` [Compound 89, 2,3-dichloro-N-(3-methoxyisoquinolin-6-yl)benzenesulfonamide] yielded a concentration for half-maximal inhibition (IC50) of 100 to 500 nM.

On to `CC(Nc1ccc2c(C(F)F)n(CC(N)=O)nc2c1)c1nc(Cl)c(Cl)s1` (single isomer, unassigned) [Compound 355A], for which the IC50 is < 100 nM.

For `CC(Nc1ccc2cc[nH]c(=O)c2c1)c1nn(C2CC2)c(Cl)c1Cl` (racemic) [Compound 321, 7-((1-(4,5-dichloro-1-cyclopropyl-1H-pyrazol-3-yl)ethyl)amino)isoquinolin-1(2H)-one], the IC50 was < 100 nM.

As to `[2H]C(C)(Nc1ccc2c(C)n(CC(N)=O)nc2c1)c1nc(Cl)c(Cl)s1` (racemic) [Compound 376, 2-(6-((1-(4,5-dichlorothiazol-2-yl)ethyl-1-d)amino)-3-methyl-2H-indazol-2-yl)acetamide], the 50% inhibitory concentration (IC50) was < 100 nM.

As for `O=c1[nH]cc(Cl)c2ccc(NS(=O)(=O)c3cccc(Cl)c3Cl)cc12` [Compound 91, 2,3-dichloro-N-(4-chloro-1-oxo-1,2-dihydroisoquinolin-7-yl)benzenesulfonamide], the IC50 is < 100 nM.

For `O=C1Cc2ccc(NS(=O)(=O)c3cccc(Cl)c3Cl)cc2CN1` [Compound 217, 2,3-dichloro-N-(3-oxo-1,2,3,4-tetrahydroisoquinolin-7-yl)benzenesulfonamide], the 50% inhibitory concentration (IC50) was 100 to 500 nM.

For the molecule `CC(Nc1ccc2c(c1)NC(=O)C2(C)C)c1nccc(Cl)c1Cl` (racemic) [Example 210, 6-((1-(3,4-dichloropyridin-2-yl)ethyl)amino)-3,3-dimethylindolin-2-one], the half-maximal inhibitory concentration (IC50) was < 100 nM.

Molecule `O=C1NCCc2ccc(NS(=O)(=O)c3ccc(F)c(F)c3F)cc21` [Compound 36, 2,3,4-trifluoro-N-(1-oxo-1,2,3,4-tetrahydroisoquinolin-7-yl)benzenesulfonamide] gave an IC50 of 100 to 500 nM.

In turn, `CC(Nc1ccc2cc[nH]c(=O)c2c1)c1nc2c(s1)CCCC2` (racemic) [Compound 236, 7-((1-(4,5,6,7-tetrahydrobenzo[d]thiazol-2-yl)ethyl)amino)isoquinolin-1(2H)-one] displayed a half-inhibitory concentration (IC50) of 100 to 500 nM.

Take `Cc1c(Br)cccc1S(=O)(=O)Nc1ccc2c(c1)C(=O)NCC2` [Compound 13, 3-bromo-2-methyl-N-(1-oxo-1,2,3,4-tetrahydroisoquinolin-7-yl)benzenesulfonamide]: the 50% inhibitory concentration (IC50) is < 100 nM.
